Results reported in patent publication US6476010B2, “Method for increasing intestinal absorption of fat soluble vitamins in post-menopausal women and lower animals” (Hill's Pet Nutrition, priority 2000, dated 2002).

Key:
ovariectomized rats [1] = test: Lymphatic absorption of α-tocopherol after 5 weeks of dietary carnitine (mesenteric lymph duct cannulation); assay type: in vivo, rat; settings: carnitine supplemented diet for 5 weeks
Protocol: Thirty two 10 weeks old female Sprague-Dawley rats weighing 208±8 g (Harlan Sprague Dawley, Indianapolis, Ind.) were housed and fed as described in Example 1. At the end of second week, at the average body weight of 240±9 g, the rats were ovariectomized under halothane anesthesia after 16 hours fasting. Initial (0 week) blood samples were taken from 6 randomly selected rats.
Immediately after surgery, rats were divided into the following two experimental groups as described in Example 1, i.e., one group was fed a diet supplemented with carnitine, and one control group. The normal food intake for both groups was about 15-16 g/day/rat.
At the end of the 5th week, Lymph duct cannulation was performed on each group having an average body weight of 340±15 g. Cannulation of the mesenteric lymph duct was performed, following 16 hours food deprivation, as described previously (Noh et al., supra). Briefly, after a midline abdominal incision was performed, the mesenteric lymph duct was cannulated with polyethylene tubing (SV 31 tubing, Dural Plastics, Auburn, Australia) by securing with a drop of cyanoacrylate glue (Krazy Glue, Columbus, Ohio) under halothane anesthesia (2.0% halothane in 2.01 oxygen/min). A silicone feeding catheter (Silastic medical grade tubing, Dow Coming, Midland, Mich.) was inserted into the gastric fundus region. The infusion catheter was exteriorized alongside the lymph cannula through the right flank. Cannulated rats were placed in individual restraining cages and allowed to recover for at least 20 hours in a warm recovery chamber kept at about 30° C. Immediately following surgery, glucose-phosphate buffered saline (PBS) (in mmol/l: 277 glucose, 6.75 Na2HPO4, 16.5 NaH2PO4, 115 NaCl, and 5 KCI; pH 6.7) was continuously infused through the duodenal cannula at 3.0 ml/h via a syringe pump (Harvard Apparatus, Model 935, South Natick, Mass.).
After postoperative recovery, rats were infused with a lipid emulsion containing 1 μCi of [carboxyl-^14C]-triolein (specific activity 112.0 mCi/mmol, DuPont NEN, Boston, Mass.), 565 μmol triolein (95%, Sigma Chemical, St. Louis, Mo.), 3.56 μmol α-tocopherol (all-rac-a-tocopherol, 97%, Aldrich Chemical, Milwaukee, Wis.), and 396 μmol sodium taurocholic acid in 24 ml of PBS. Lymph was collected hourly for 8 hours in pre-weighed conical centrifuge tubes containing 30 μg of n-propyl gallate and 4 mg of Na2EDTA in ice-filled beakers. After lymph collection, the rats were killed by cervical dislocation, and the livers were collected. The samples were stored at about −70° C. until analysis.
From the lipid extracted (Folch et al., supra), tissue total phospholipid was measured colorimetrically by the method of Reheja et al. (J Lipid Res 1973;14:695-697). Tissue total cholesterol was determined as described by Rudel et al. (J Lipid Res 1973;21:364-366). Alpha-tocopherol was determined as described by Zaspel et al (supra) and in Example 1 above. Statistical analyses were conducted as described in Example 1.

ovariectomized rats [2] = test: Liver levels and biliary secretion of α-tocopherol after 8 weeks of dietary carnitine (bile duct cannulation); assay type: in vivo, rat
Protocol: Thirty two 10 weeks old female Sprague-Dawley rats weighing 214±6 g (Harlan Sprague Dawley, Indianapolis, Ind.) were placed individually in plastic cages with stainless steel wire-bottoms in a windowless room at a controlled temperature of about 23° C. and subjected to a light-dark cycle with the light period from 3:30 pm to 3:30 am and the dark period from 3:30 am to 3:30 pm. The rats were acclimatized for 1 week with free access to the deionized water and ad libitum fed a zinc-adequate AIN-93G diet (Reeves et al., J Nutr 1993;123:1939-1951) formulated by Dyets, Inc. (Bethlehem, Pa., USA) with 7% soybean oil as a fat source. Zinc carbonate was added to provide the desired levels of zinc. At the end of the first week, at the average body weight of 230±12 g, the rats were ovariectomized under halothane anesthesia after 16 hours of fasting. Initial blood samples (week 0) were taken from 5 randomly selected rats. After 1 week of postoperative recovery, rats were divided into the following two experimental groups by matching body weight: One group of rats was fed a zinc-adequate AIN-93G diet containing α-tocopherol-stripped soybean oil; 150 ppm Sipernat® 50, which is hydrated silica available from Degussa Corporation, Ridgefield, N.J.; and supplemented with 150 mg/kg L-carnitine. A control group was fed the same diet, except that the 150 mg/kg of L-carnitine was substituted with 150 ppm of α-D-glucose. The normal food intake for both groups was around 15 g/day/rat. Blood samples were taken at the beginning of 1, 3, 5, 8 weeks from 5 randomly selected rats in each group. At the end of the 8th week, bile duct cannulation was performed on the rats in both groups having an average body weight of about 340±15 g. Cannulation of the common bile duct was performed, following 16 hours food deprivation, as described previously (Noh et al., J Nutr Biochem 1999;10:110-117). Briefly, after performing a midline abdominal incision, the common bile duct was cannulated with PE-10 tubing (Clay Adams, Sparks, Md.) under halothane anesthesia (2.0% halothane in 2.01 oxygen/min). A silicone feeding catheter (Silastic medical grade tubing, Dow Coming, Midland, Mich.) was inserted into the gastric fundus region. The infusion catheter was exteriorized alongside the bile cannula through the right flank. Cannulated rats were placed in individual restraining cages and allowed to recover for at least 20 hours in a warm recovery chamber kept at about 30° C. Immediately after surgery, glucose-phosphate buffered saline (PBS) (in mmol/l: 277 glucose, 6.75 Na2HPO4, 16.5 NaH2PO4, 115 NaCl, and 5 KCI; pH 6.7) was continuously infused through the duodenal cannula at 3.0 ml/h via a syringe pump (Harvard Apparatus, Model 935, South Natick, Mass.). After postoperative recovery, rats were infused with a lipid emulsion containing 565 μmol triolein (95%, Sigma Chemical, St. Louis, Mo.), and 396 μmol sodium taurocholic acid in 24 ml of PBS. Bile was collected hourly for 8 hours in pre-weighed conical centrifuge tubes containing 30 μg of n-propyl gallate in ice filled beakers. After bile collection, the rats were killed by cervical dislocation, and the livers were dissected. The samples were stored at about −70° C. until analysis. Lipids were extracted by Folch's method (Folch et al., J Biol Chem 1957;226:497-509). The content of α-tocopherol was determined as described by Zaspel et al. (Anal. Biochem. 1983;130:146-150). […]

[3] = significant difference vs control

## C[N+](C)(C)C[C@H](O)CC(=O)[O-] [carnitine, L-carnitine]
Ovariectomized rats [1]; lipid emulsion with 3.56 μmol α-tocopherol infused, P<0.05 vs control
  lymphatic absorption of α-tocopherol for 8 hours: 899±200 nmol/8 h
Ovariectomized rats [1]; lymph collected for 8 hours, no difference vs control
  lymph flow: 22.6±4.2 ml/8 hours
Ovariectomized rats [1]; lymph for 8 hours, P<0.05 vs control
  absorption of 14C-triolein: 53.5±4.0 % dose
Ovariectomized rats [1]; [3]
  ratio of lymph α-tocopherol/cholesterol: 82.7±17.1 nmol/μmol
  ratio of lymph α-tocopherol/phospholipid: 46.9±8.8 nmol/μmol
Ovariectomized rats [2]; liver, ovariectomized rats fed a carnitine supplemented diet, compared with control
  α-tocopherol concentration per 100 mg total lipid: significantly higher
Ovariectomized rats [2]; ovariectomized Sprague-Dawley rats, diet with 150 mg/kg L-carnitine for 8 weeks, bile collected for 8 hours, no difference vs control, mean±SD
  bile flow: 7.9±1.4 ml/8 hours
Ovariectomized rats [2]; ovariectomized rats, diet with 150 mg/kg L-carnitine for 8 weeks, P<0.05 vs control, mean±SD
  biliary secretion of α-tocopherol for 8 hours: 53.1 ± 9.3 nmol
Ovariectomized rats [2]; ovariectomized rats, diet with 150 mg/kg L-carnitine for 8 weeks, P=0.001 vs control
  ratio of liver α-tocopherol/phospholipid: 4.8±0.6 nmol/μmol
Ovariectomized rats [2]; ovariectomized rats, diet with 150 mg/kg L-carnitine for 8 weeks, significantly elevated vs control
  liver concentration of α-tocopherol: 129.6 ± 19.5 nmol/g
